The source of these data is US9453026B2, “ACC inhibitors and uses thereof” (Gilead Apollo, Inc., priority 2011, dated 2016).

Structures are written as SMILES. In brackets after ≈: the same amount, converted by molar mass. Like-named read-outs stand apart in the source and are kept apart here.

As a reminder, the MIC is the lowest concentration found to suppress growth.

In assay [1] the test system is target protein (ACC). Kind of assay: Thermal Shift Assay (TSA). It counts as binding. To be noted: FIG. 3. From the text: 103, 43, 15835-15840, the entirety of which is incorporated herein by reference.
The target of assay [2] is ACC2 (Homo sapiens, UniProt O00763). As to the kind of experiment: In vitro ACC2 inhibition assay (ADP-Glo). To be noted: read-out: ACC2. It counts as biochemical. The method, boiled down: (§1)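 Enzyme (human ACC1 or ACC2) and compound, serially diluted 1:3 over 11 points from a 600 uM DMSO stock, were preincubated 15 min before substrate addition.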
Background: ADP-Glo turns the ADP formed in a reaction into a luminescent signal.

Assay [3] addresses ACC1 (Homo sapiens, UniProt Q13085). Kind of assay: In vitro ACC1 inhibition assay (ADP-Glo). It counts as biochemical. To be noted: read-out: ACC1. In a few lines: as §1
Assay [4] deals with C. albicans ATCC 90028. Kind of assay: Anti-Fungal Activity Assay (broth microtiter MIC). The class given is cell-based. To be noted: 3 replicates, test compounds read at 48 h. On the procedure:
(§2) Compounds of the present invention were evaluated in an Anti-Fungal Activity Assay. An exemplary procedure for the assay, which measures the susceptibility of various Candida species to anti-fungal compounds, follows. Compounds to be tested (including fluconazole and amphotericin B) were dissolved in DMSO to obtain a solution having a concentration of 1 mg/mL. […] All species were grown from frozen stock by directly plating on to freshly prepared Sabouraud Dextrose agar (BD, Difco) and incubated overnight in ambient air at 35° C. for 24 h. A direct suspension was prepared in RPMI 1640+MOPS (Lonza, Biowhittaker) by taking individual colonies from the overnight cultures using sterile swabs soaked in sterile saline. The concentration of the suspension was determined using pre-determined standard curves. […] The original CLSI guidelines focused on reading Candida MICs after 48 h of incubation. As reading after only 24 h offers a clear advantage of patient care, QC limits are being established for all drugs at 24 h. That being said there are no known interpretive breakpoints for amphotericin B at 24 h and the current fluconazole interpretive breakpoints are based on a 48 h reading. The MIC breakpoints for the Pharmaron test compounds were recorded at 48 h, and for the soraphen the 24 h time-point was added. All MIC determinations were achieved by visually comparing the growth found in the antibiotic challenged wells to that of the growth control.

In assay [5] the test system is C. krusei ATCC 6258. Kind of assay: Anti-Fungal Activity Assay (broth microtiter MIC). The class given is cell-based. As to conditions: 3 replicates, test compounds read at 48 h. On the procedure:
as §2

In assay [6] the test system is C. parapsilosis ATCC 22019. As to the kind of experiment: Anti-Fungal Activity Assay (broth microtiter MIC). As to conditions: 3 replicates, test compounds read at 48 h. The class given is cell-based. Here is the method:
as §2

In assay [7] the test system is LNCaP (prostate cancer cell line) cells. Kind of assay: Cancer Cell Viability Assay. The class given is cell-based, human. As to conditions: concentration of 5 uM, FIG. 5. On the procedure: Compounds of the invention were also assayed in a Cancer Cell Viability Assay as described by Beckers et al. “Chemical Inhibition of Acetyl-CoA Carboxylase Induces Growth Arrest and Cytotoxicity Selectively in Cancer Cells” Cancer Res. (2007) 67, 8180-8187. An exemplary procedure for the assay, which measures the percentage of cancer cells surviving following administration of inhibitor compounds, follows.
LNCaP (prostate cancer cell line) cells plated at 4×10^5 per 6 cm dish were incubated at 37° C., and the following day they were treated with increasing concentrations of inhibitor compounds and incubated. Viable cells and the percentage of dead cells was counted and calculated every day for 5 days from day 0, using trypan blue staining.

In assay [8] the test system is HepG2 cells. Kind of assay: [14C] Acetate Incorporation HepG2 Cellular Assay. To be noted: Homo sapiens; HepG2 cells, FIG. 4; read-out: IC50, incorporation of isotopically labeled acetate into fatty acids. It counts as cell-based. On the procedure:
Compounds of the present invention were evaluated in a [^14C] Acetate Incorporation Assay. An exemplary procedure for the assay, which measures the incorporation of isotopically labeled acetate into fatty acids, follows. HepG2 cells were maintained in T-75 flasks containing DMEM supplemented with 2 mM 1-glutamine, penicillin G (100 units/ml), streptomycin 100 μg/ml with 10% FBS and incubated in a humidified incubator with 5% CO2 at 37° C. Cells were fed every 2-3 days. On Day 1. cells were seeded in 24 well plates at a density of 1.2×10^5 cells/ml/well with the growth medium. On Day 3 the medium was replaced with fresh medium containing 10% FBS. On Day 4 the medium was replaced with 0.5 ml of fresh medium containing test compound (in DMSO; final [DMSO] is 0.5%) and the cells were incubated at 37° C. for 1 hour. To one copy of plate, 4 ul of [2-^14C]acetate (56 mCi/mmol; 1 mCi/ml; PerkinElmer) was added and the cells were incubated at 37° C., 5% CO2 for 5 hrs. To a second copy of plate, 4 ul of cold acetate were added and the cells were incubated at 37° C., 5% CO2 for 5 hrs. This plate was used for protein concentration measurement. Medium was removed and placed in a 15 ml centrifuge tube (BD, Falcon/352096). Cells were rinsed with 1 ml PBS, then aspirated, and the rinse and aspiration steps were repeated. 0.5 ml of 0.1N NaOH were added to each well and let sit at RT to dissolve cell monolayer. The remaining cell suspension was pooled with medium. For the protein determination plate, an aliquot was removed for protein determination (25 ul). […] 5 ml petroleum ether was added per tube, shaken vigorously, centrifuged at 1000 rpm for 5 min, and 500 uL of the petroleum ether layer was transferred to tubes for Microbeta reading, then 2 ml Aquasol-2 were added to each tube, the tubes were shaken and counted with a Microbeta Liquid Scintillation Counter (Perkin Elmer).
The remaining petroleum ether layer was discarded and the aqueous phase reserved for fatty acid extractions. […] 2 ml of Aquasol-2 was added to each vial, and the vials were shaken and counted on a scintillation counter.

The test system of assay [9] is Candida species. Kind of assay: Anti-Fungal Activity Assay, summary over Candida species. The class given is cell-based. To be noted: summary of Table 3. Here is the method: as §2

Chain of ACC2 (O00763 whole entry, species assumed): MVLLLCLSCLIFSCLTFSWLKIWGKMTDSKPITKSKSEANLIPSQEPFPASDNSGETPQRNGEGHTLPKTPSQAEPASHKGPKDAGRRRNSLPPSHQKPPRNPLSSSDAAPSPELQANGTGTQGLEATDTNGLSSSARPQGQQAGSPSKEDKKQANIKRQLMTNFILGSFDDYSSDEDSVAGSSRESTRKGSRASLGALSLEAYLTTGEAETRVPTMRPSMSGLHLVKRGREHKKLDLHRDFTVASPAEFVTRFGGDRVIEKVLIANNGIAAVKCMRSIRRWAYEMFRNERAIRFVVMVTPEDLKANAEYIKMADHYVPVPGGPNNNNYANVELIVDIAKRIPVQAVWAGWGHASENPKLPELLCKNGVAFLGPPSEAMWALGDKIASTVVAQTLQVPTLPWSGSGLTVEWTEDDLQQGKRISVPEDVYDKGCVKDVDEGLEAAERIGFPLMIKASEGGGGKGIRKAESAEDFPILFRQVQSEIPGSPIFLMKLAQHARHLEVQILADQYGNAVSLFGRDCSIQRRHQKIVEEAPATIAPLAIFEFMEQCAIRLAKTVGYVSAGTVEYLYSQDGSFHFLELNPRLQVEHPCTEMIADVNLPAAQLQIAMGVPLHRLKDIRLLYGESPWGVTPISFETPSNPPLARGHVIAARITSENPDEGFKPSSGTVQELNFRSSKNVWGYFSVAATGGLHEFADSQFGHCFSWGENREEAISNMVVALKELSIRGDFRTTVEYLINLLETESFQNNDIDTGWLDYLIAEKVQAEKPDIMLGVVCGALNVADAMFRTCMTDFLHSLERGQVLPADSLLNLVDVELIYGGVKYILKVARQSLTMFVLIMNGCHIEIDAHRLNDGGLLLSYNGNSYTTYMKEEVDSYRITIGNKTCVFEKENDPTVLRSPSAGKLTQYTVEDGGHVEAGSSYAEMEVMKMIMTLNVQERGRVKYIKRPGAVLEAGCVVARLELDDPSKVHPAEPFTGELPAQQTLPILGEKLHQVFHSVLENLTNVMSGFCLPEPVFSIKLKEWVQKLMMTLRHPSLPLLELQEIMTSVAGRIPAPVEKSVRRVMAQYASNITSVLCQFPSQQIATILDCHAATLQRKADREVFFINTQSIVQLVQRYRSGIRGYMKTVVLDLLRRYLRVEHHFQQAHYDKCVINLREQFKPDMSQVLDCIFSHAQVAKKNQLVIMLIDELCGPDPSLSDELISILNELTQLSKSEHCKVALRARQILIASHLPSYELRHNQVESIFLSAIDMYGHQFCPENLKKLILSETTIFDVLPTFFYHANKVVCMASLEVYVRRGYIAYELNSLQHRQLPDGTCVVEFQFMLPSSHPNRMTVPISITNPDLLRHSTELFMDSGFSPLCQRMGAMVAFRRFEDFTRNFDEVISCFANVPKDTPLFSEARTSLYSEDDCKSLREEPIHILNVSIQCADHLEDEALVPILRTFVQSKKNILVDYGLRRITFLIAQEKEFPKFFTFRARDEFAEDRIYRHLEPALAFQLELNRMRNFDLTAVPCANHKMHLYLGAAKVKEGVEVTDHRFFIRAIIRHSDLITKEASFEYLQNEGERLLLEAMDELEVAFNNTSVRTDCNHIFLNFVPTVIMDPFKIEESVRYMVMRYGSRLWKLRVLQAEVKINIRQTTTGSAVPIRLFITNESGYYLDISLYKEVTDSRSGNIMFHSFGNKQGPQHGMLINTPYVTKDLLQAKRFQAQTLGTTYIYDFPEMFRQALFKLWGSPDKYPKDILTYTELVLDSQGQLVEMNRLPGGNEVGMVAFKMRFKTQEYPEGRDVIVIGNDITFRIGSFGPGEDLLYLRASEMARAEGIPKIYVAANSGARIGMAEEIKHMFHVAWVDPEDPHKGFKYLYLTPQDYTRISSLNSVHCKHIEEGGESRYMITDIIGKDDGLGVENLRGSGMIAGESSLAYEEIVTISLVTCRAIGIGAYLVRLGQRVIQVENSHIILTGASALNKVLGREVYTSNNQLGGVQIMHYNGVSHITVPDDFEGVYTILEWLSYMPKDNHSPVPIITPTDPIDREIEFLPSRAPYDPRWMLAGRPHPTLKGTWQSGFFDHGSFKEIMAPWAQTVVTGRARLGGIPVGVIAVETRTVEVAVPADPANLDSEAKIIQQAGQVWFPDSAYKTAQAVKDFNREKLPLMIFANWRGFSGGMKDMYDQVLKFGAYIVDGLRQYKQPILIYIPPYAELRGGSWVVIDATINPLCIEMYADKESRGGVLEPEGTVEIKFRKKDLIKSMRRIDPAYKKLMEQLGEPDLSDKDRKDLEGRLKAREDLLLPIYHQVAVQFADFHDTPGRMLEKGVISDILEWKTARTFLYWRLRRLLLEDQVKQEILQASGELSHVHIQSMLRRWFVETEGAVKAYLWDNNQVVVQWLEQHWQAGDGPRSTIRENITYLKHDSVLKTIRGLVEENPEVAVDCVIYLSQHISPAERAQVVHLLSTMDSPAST

As to `COc1ccccc1[C@@H](Cn1c(=O)n(C(C)(C)C(=O)O)c(=O)c2c(C)c(-c3ncco3)sc21)OC(C)C` [I-158, 2-[1-[(2S)-2-(2-methoxyphenyl)-2-(propan-2-yloxy)ethyl]-5-methyl-6-(1,3-oxazol-2-yl)-2,4-dioxo-1H,2H,3H,4H-thieno[2,3-d]pyrimidin-3-yl]-2-methylpropanoic acid], the “thermal melting point change compared with Soraphen A” value in assay [1] is reported as “equivalent to that of Soraphen A”. Further, the IC50 in assay [2], in assay [3] and in assay [8] was under 100 nM in each case. Further, the MIC was 2 µg/mL (≈ 3.79 µM) in [4]; 2 µg/mL (≈ 3.79 µM) in assay [4] (Candida albicans, ATCC90028, 48 h, read-out: MIC); 2 µg/mL (≈ 3.79 µM) in assay [5]; 2 µg/mL (≈ 3.79 µM) in assay [5] (Pichia kudriavzevii, ATCC6258, 48 h, read-out: MIC); 8 µg/mL (≈ 15.2 µM) in [6]; 8 µg/mL (≈ 15.2 µM) in assay [6] (Lodderomyces parapsilosis, ATCC22019, 48 h, read-out: MIC). For the same compound, in assay [7], the cell population growth result is “completely inhibit cell population growth”. For the same compound, the “anti-fungal activity MICs” value in assay [9] is on record as “low ug/mL range”.
